Assay results from US20260097111A1, “ETHER LIPIDS FOR HYPERACTIVATION OF MAMMALIAN DENDRITIC CELLS” (priority 2022, published 2026).
Entries after “also recorded” stand apart in the source; their conditions may differ.

Legend:
[1] = test system: human monocyte-derived dendritic cells (moDCs); assay: IL-1β secretion by human moDCs treated with lipid and R848; type: cell-based; settings: for IL-1β secretion, dependence on the NLRP3 inflammasome / IL-1β secretion: human moDCs; for IL-1β secretion, dependence on the NLRP3 inflammasome: R848 + lipid with or without MCC950, one day, FIG. 3B
human moDC = assay: Staining moDC for activation marker expression; type: cell-based
Description: Staining moDC for Activation Marker Expression. After treatment and supernatant collection, cells were resuspended in 200 μL/well PBS and transferred to 96-well V-bottom plates. To pellet cells and remove supernatant, plates were spun at 400×g for 4 min for this and subsequent steps. Cells were washed again with 200 μL/well PBS and pelleted. Live/dead Near-IR staining dye was diluted 1000-fold in PBS. […] Fc block was diluted 100-fold in FACS buffer, and 100 μL/well was added to cells. Cells were incubated with Fc block for 10 min at 4° C. During incubation primary CCR7 antibody (clone 2H4) was diluted 100-fold in FACS buffer. Cells were pelleted and primary CCR7 antibody was added at 100 μL/well. Cells were incubated at 37° C. for 30 min. Biotinylated rat anti-mouse IgM secondary was prepared by diluting 200-fold in FACS buffer. Cells were washed twice with FACS buffer before 100 μL/well secondary antibody was added. Cells were incubated at 4° C. for 20 min. Tertiary staining antibody cocktail was prepared in a mixture of FACS buffer and Brilliant Stain Buffer (1:1 volume ratio of each buffer). […], CD11c (PE-Cy7), CD209 (PE), CD40 (UV563), CD83 (UV737), CD86 (BV711), and HLA-DR (UV395) were all diluted 200-fold. HLA-ABC (BV605) was diluted 100-fold. […]
For flow cytometry analysis, fluorescence compensation was set up using compensation […]. […]

Compound | IL-1β secretion, dependence on the NLRP3 inflammasome [1] | percentage of CD83+ cells (human moDC; 2.85 μM R848 and/or 82.5 μM DGP, overnight, FIG. 24A) | CD86 MFI (human moDC; FIG. 25B) | hyperactivation of human dendritic cells ([1]; 41.25 μM lipid with R848 (Compound 1 also 20.6 μM)) | IL-1β secretion ([1]; 41.25 μM lipid with R848, FIG. 17) | IL-1β secretion ([1]; 41.3 uM lipid with R848, FIG. 11) | IL-1β secretion ([1]; 24 hours, lipid (equimolar, in 0.5% KP407) with R848, FIG. 1B, listed as DGP) | IL-1β secretion ([1]; 24 hours, lipid in 4% KP407 with R848, FIG. 2B)
CC(C)(O)c1coc(S(=O)(=O)NC(=O)Nc2c3c(cc4c2CCC4)CCC3)c1 [MCC950, reference compound] | diminished the IL-1β output |  |  |  |  |  |  | 
CCCCCCCCCCCCCCCCCCCCCCOC[C@@H](O)COP(=O)(O)O [Compound 2, 1-docosyl-sn-glycerol-3-phosphate] | depend on the NLRP3 inflammasome for IL-1β secretion | increased CD83 expression, but increase was not found to be statistically significant | significant increases in CD86 expression as compared to unstimulated cells | hyperactivating lipids; also recorded: hyperactivated dendritic cells | significant increase in IL-1β | robustly induced IL-113 secretion | IL-1β was secreted to a greater extent than 22:0 lyso PC; also recorded: more potent hyperactivator compared to DGPC (Compound 1) and 22:0 lyso PC | produced significantly more IL-1β
